Assay results taken from patent publication US20060069132A1, “Azolecarboxamide herbicides” (priority 2004, published 2006).

Key:
velvetleaf [1] = assay: Test A pre-/postemergence herbicide test; format: in vivo, Abutilon theophrasti
Procedure, shortened: (§1)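 Visual injury scores on a 0–100 scale (100 = complete control) taken about ten days post-treatment in greenhouse against untreated controls; dash means no result. Treatments: preemergence soil spray and postemergence spray to runoff on one- to two-leaf plants 2 to 10 cm tall, surfactant-containing formulation.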

morningglory [2] = assay: Test A pre-/postemergence herbicide test; format: in vivo, Ipomoea spp.
Procedure, shortened: as §1

ducksalad = assay: Test B flooded paddy test; format: in vivo, Heteranthera limosa; settings: 1000 g ai/ha, scale 0 to 100 (0 no effect, 100 complete control)
Procedure, shortened: (§2)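 Plants grow to 1- to 4-leaf stage (2–18 cm) for postemergence spraying, or to 2-leaf stage for the paddy test. Formulated compound is applied. Greenhouse holding lasts 13–15 days. Response is scored visually relative to controls, 0 no effect to 100 complete control; a dash means no result.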

redroot pigweed = assay: Test A pre-/postemergence herbicide test; format: in vivo, Amaranthus retroflexus
Procedure, shortened: as §1

barnyardgrass [3] = assay: Test B flooded paddy test; format: in vivo, Echinochloa crus-galli; settings: 1000 g ai/ha, scale 0 to 100 (0 no effect, 100 complete control)
Procedure, shortened: as §2

cocklebur = assay: Test B pre-/postemergence herbicide test; format: in vivo, Xanthium strumarium; settings: for Cocklebur plant response rating: postemergence
Procedure, shortened: (§3)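 Species tested were Echinochloa crus-galli, Ipomoea coccinea, Xanthium strumarium and Oryza sativa, treated both before emergence and at the 1- to 4-leaf stage; rice and barnyardgrass were also tested under flooding at 2 leaves. Greenhouse incubation lasted 13–15 days before visual 0–100 scoring.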

velvetleaf [4] = assay: Test B pre-/postemergence herbicide test; format: in vivo, Abutilon theophrasti; settings: for Velvetleaf plant response rating: postemergence
Procedure, shortened: (§4)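 Flooded paddy rice and barnyardgrass were treated at the 2-leaf stage; upland plantings received compound either on sown seed or on 1- to 4-leaf seedlings. All were kept 13–15 days in a greenhouse and scored visually, 0–100, relative to untreated plants.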

wild oat = assay: Test B postemergence herbicide test; format: in vivo, Avena fatua; settings: postemergence
Procedure, shortened: (§5)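 Formulated test chemicals went onto postemergence plants measuring 2 to 18 cm, at one to four leaves. For the paddy assay, species had reached two leaves. Scoring took place 13–15 days later by eye, relative to untreated plants, using 0 for no effect up to 100 for full control.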

[5] = system: small flower umbrella sedge; assay: Test B flooded paddy test; format: in vivo, Cyperus difformis; settings: 1000 g ai/ha, scale 0 to 100 (0 no effect, 100 complete control)
Procedure, shortened: as §2

Surinam grass = assay: Test B pre-/postemergence herbicide test; format: in vivo, Urochloa decumbens; settings: for Surinam Grass plant response rating: postemergence
Procedure, shortened: as §4

rice = assay: Test B flooded paddy test; format: in vivo, Oryza sativa; settings: 1000 g ai/ha, scale 0 to 100 (0 no effect, 100 complete control)
Procedure, shortened: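 After treating 2-leaf paddy plants or 2–18 cm postemergence plants (1 to 4 leaves) with formulated chemical, researchers kept them in a greenhouse for 13–15 days. Effects were judged visually versus controls: 0 indicates none, 100 total control.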

corn = assay: Test B pre-/postemergence herbicide test; format: in vivo, Zea mays; settings: for Corn plant response rating: postemergence
Procedure, shortened: as §4

barnyardgrass [6] = assay: Test A pre-/postemergence herbicide test; format: in vivo, Echinochloa crus-galli
Procedure, shortened: as §1

large crabgrass [7] = assay: Test B pre-/postemergence herbicide test; format: in vivo, Digitaria sanguinalis; settings: for Crabgrass, Large plant response rating: postemergence
Procedure, shortened: as §4

blackgrass = assay: Test B postemergence herbicide test; format: in vivo, Alopecurus myosuroides; settings: postemergence
Procedure, shortened: as §2

lambsquarters = assay: Test B pre-/postemergence herbicide test; format: in vivo, Chenopodium album; settings: for Lambsquarters plant response rating: postemergence
Procedure, shortened: as §4

barnyardgrass [8] = assay: Test B pre-/postemergence herbicide test; format: in vivo, Echinochloa crus-galli; settings: for Barnyardgrass plant response rating: postemergence
Procedure, shortened: as §3

wheat = assay: Test B postemergence herbicide test; format: in vivo, Triticum aestivum; set-up: key to Wheat plant response rating: 0 = no effect, 100 = complete control; settings: postemergence
Procedure, shortened: as §5

giant foxtail [9] = assay: Test A pre-/postemergence herbicide test; format: in vivo, Setaria faberi
Procedure, shortened: as §1

pigweed = assay: Test B pre-/postemergence herbicide test; format: in vivo, Amaranthus retroflexus; settings: for Pigweed plant response rating: postemergence
Procedure, shortened: as §4

large crabgrass [10] = assay: Test A pre-/postemergence herbicide test; format: in vivo, Digitaria sanguinalis
Procedure, shortened: as §1

giant foxtail [11] = assay: Test B pre-/postemergence herbicide test; format: in vivo, Setaria faberi; settings: for Foxtail, Giant plant response rating: postemergence
Procedure, shortened: as §4

morningglory [12] = assay: Test B pre-/postemergence herbicide test; format: in vivo, Ipomoea coccinea; settings: for Morningglory plant response rating: postemergence
Procedure, shortened: as §3

[13] = Postemergence, 500 g ai/ha, 0 to 100 scale, 0 no effect, 100 complete control
[14] = Postemergence, 2000 g ai/ha, 0 to 100 scale, 0 no effect, 100 complete control
[15] = Preemergence, 2000 g ai/ha, visual rating, 0 to 100 scale (0 no effect, 100 complete control)
[16] = preemergence, 500 g ai/ha, visual injury, 0 to 100 scale (0 no effect, 100 complete control)
[17] = 125 g ai/ha, 0 is no effect, 100 is complete control, preemergence
[18] = 125 g ai/ha, visual rating, scale 0 (no effect) to 100 (complete control)
[19] = 500 g ai/ha, visual rating, 0 = no effect, 100 = complete control, preemergence
[20] = 500 g ai/ha, scale 0 to 100, 0 is no effect, 100 is complete control

Q: What does the source list for `CCOc1ccc(F)c(NC(=O)c2cc(C(C)(C)C)nn2CC)c1` [Compound 348]?
A: Velvetleaf plant response rating (velvetleaf [1]; [13]): 0; Plant response rating, Velvetleaf (velvetleaf [1]; [14]): 0; Velvetleaf plant response rating (velvetleaf [1]; [15]): 0; Velvetleaf plant response rating (velvetleaf [1]; [16]): 0; Morningglory plant response rating (morningglory [2]; [13]): 0; Plant response rating, Morningglory (morningglory [2]; [14]): 0; Morningglory plant response rating (morningglory [2]; [15]): 0; Morningglory plant response rating (morningglory [2]; [16]): 0; Ducksalad plant response rating (ducksalad): 0; Pigweed plant response rating (redroot pigweed; [13]): 0; Plant response rating, Pigweed (redroot pigweed; [14]): 0; Pigweed plant response rating (redroot pigweed; [15]): 0; Pigweed plant response rating (redroot pigweed; [16]): 0; Barnyardgrass plant response rating (barnyardgrass [3]): 0; Plant response rating (0 to 100 scale), Cocklebur (cocklebur; [17]): 0; Cocklebur plant response rating (cocklebur; [18]): 0; Plant response rating, Cocklebur (cocklebur; [19]): 0; Cocklebur plant response rating (cocklebur; [20]): 0; Plant response rating (0 to 100 scale), Velvetleaf (velvetleaf [4]; [17]): 0; Velvetleaf plant response rating (velvetleaf [4]; [18]): 0; Velvetleaf plant response rating (velvetleaf [4]; [20]): 0; Oat, Wild plant response rating (wild oat; [18]): 20; Oat, Wild plant response rating (wild oat; [20]): 30; Sedge, Umbrella plant response rating [5]: 0; Plant response rating (0 to 100 scale), Surinam Grass (Surinam grass; [17]): 0; Surinam Grass plant response rating (Surinam grass; [18]): 0; Plant response rating, Surinam Grass (Surinam grass; [19]): 0; Surinam Grass plant response rating (Surinam grass; [20]): 0; Rice plant response rating (rice): 0; Plant response rating (0 to 100 scale), Corn (corn; [17]): 0; Corn plant response rating (corn; [18]): 0; Plant response rating, Corn (corn; [19]): 0; Corn plant response rating (corn; [20]): 0; Barnyardgrass plant response rating (barnyardgrass [6]; [13]): 0; Plant response rating, Barnyardgrass (barnyardgrass [6]; [14]): 0; Barnyardgrass plant response rating (barnyardgrass [6]; [15]): 0; Barnyardgrass plant response rating (barnyardgrass [6]; [16]): 0; Plant response rating (0 to 100 scale), Crabgrass, Large (large crabgrass [7]; [17]): 0; Crabgrass, Large plant response rating (large crabgrass [7]; [18]): 0; Plant response rating, Crabgrass, Large (large crabgrass [7]; [19]): 0; Crabgrass, Large plant response rating (large crabgrass [7]; [20]): 0; Blackgrass plant response rating (blackgrass; [18]): 20; Blackgrass plant response rating (blackgrass; [20]): 40; Plant response rating (0 to 100 scale), Lambsquarters (lambsquarters; [17]): 0; Lambsquarters plant response rating (lambsquarters; [18]): 0; Plant response rating, Lambsquarters (lambsquarters; [19]): 0; Lambsquarters plant response rating (lambsquarters; [20]): 0; Plant response rating (0 to 100 scale), Barnyardgrass (barnyardgrass [8]; [17]): 0; Barnyardgrass plant response rating (barnyardgrass [8]; [18]): 0; Plant response rating, Barnyardgrass (barnyardgrass [8]; [19]): 0; Barnyardgrass plant response rating (barnyardgrass [8]; [20]): 0; Wheat plant response rating (wheat; [18]): 20; Wheat plant response rating (wheat; [20]): 20; Foxtail, Giant plant response rating (giant foxtail [9]; [13]): 0; Plant response rating, Foxtail, Giant (giant foxtail [9]; [14]): 0; Foxtail, Giant plant response rating (giant foxtail [9]; [15]): 0; Foxtail, Giant plant response rating (giant foxtail [9]; [16]): 0; Plant response rating (0 to 100 scale), Pigweed (pigweed; [17]): 0; Pigweed plant response rating (pigweed; [18]): 0; Plant response rating, Pigweed (pigweed; [19]): 0; Pigweed plant response rating (pigweed; [20]): 0; Crabgrass, Large plant response rating (large crabgrass [10]; [13]): 0; Plant response rating, Crabgrass, Large (large crabgrass [10]; [14]): 0; Crabgrass, Large plant response rating (large crabgrass [10]; [15]): 0; Crabgrass, Large plant response rating (large crabgrass [10]; [16]): 0; Plant response rating (0 to 100 scale), Foxtail, Giant (giant foxtail [11]; [17]): 0; Foxtail, Giant plant response rating (giant foxtail [11]; [18]): 0; Plant response rating, Foxtail, Giant (giant foxtail [11]; [19]): 0; Foxtail, Giant plant response rating (giant foxtail [11]; [20]): 0; Plant response rating (0 to 100 scale), Morningglory (morningglory [12]; [17]): 0; Morningglory plant response rating (morningglory [12]; [18]): 0; Plant response rating, Morningglory (morningglory [12]; [19]): 0; Morningglory plant response rating (morningglory [12]; [20]): 0
